10 compounds from ChEMBL document CHEMBL1201862, “PubChem BioAssay data set” (2004) can be followed below.

As usually defined, the GI50 is the concentration that inhibits growth by half.

Some test systems named below: DMS-114; SW-620; SK-MEL-5; SK-OV-3; TK-10; NCI-H23; NCI-H460; MOLT-4; COLO 205; HCT-116; A549; U-251; SK-MEL-2; UACC-257; NCI-H522; RPMI-8226.
Experiment in all cases: DTP human tumour cell line panel, 48 h

Structures are written as SMILES.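 Interpolation was linear, between the two tested concentrations surrounding the appropriate level; five concentrations were tested over 48 hours in 96-well plates. At the GI50, growth is halved.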 Activity calls are given as the source filed them. Rule as the data show it: active = GI50 up to about 1.1 µM and inactive = higher.

Consider `COc1cc2cc(OC(C)=O)c3cc4c(cc3c2c(OC)c1OC)OCO4`, for which the GI50 with DMS-114, in the assay with SW-620, with SK-MEL-5, in the assay on SK-OV-3, in the assay on TK-10 and in the assay on NCI-H23 was > 100 µM (inactive) each time. Also, the GI50 in the assay on NCI-H460, with MOLT-4, in the assay on COLO 205, with HCT-116, with A549 and with U-251 was > 100 µM (inactive) in each case. Besides, the GI50 with SK-MEL-2, with UACC-257 and with NCI-H522 was > 100 µM (inactive) each time.
With `CC1(C)C(c2ccccc2)C12CCC1(C2=O)C(c2ccccc2)C1(C)C` (stereo not given), the GI50 is 17.9 µM (inactive) with DMS-114; 21.7 µM (inactive) with SW-620; 18.7 µM (inactive) with SK-MEL-5; 34.5 µM (inactive) in the assay on TK-10; 14.3 µM (inactive) in the assay with RPMI-8226; 18.9 µM (inactive) with NCI-H23. Also, the GI50 in the assay on MOLT-4 was 18.9 µM (inactive); in the assay with COLO 205, 18.8 µM (inactive); in the assay on HCT-116, 16.6 µM (inactive); in the assay with A549, 26.4 µM (inactive); in the assay on U-251 it was 17.8 µM (inactive); in the assay with SK-MEL-2, 19.7 µM (inactive). For the same compound, the GI50 is 17.9 µM (inactive) in the assay with UACC-257 and 13.5 µM (inactive) in the assay with NCI-H522.
For the compound `Nc1nc2ncn(CCO)c2c(=S)[nH]1`, the GI50 in the assay on DMS-114, in the assay on SW-620, with SK-MEL-5, in the assay with SK-OV-3, in the assay on TK-10 and in the assay on RPMI-8226 was > 100 µM (inactive) each time. Also, the GI50 in the assay on NCI-H460, with COLO 205, with HCT-116, with A549, in the assay on U-251 and in the assay on SK-MEL-2 was > 100 µM (inactive) in each case. The GI50 in the assay with UACC-257 and in the assay with NCI-H522 was > 100 µM (inactive) in each case.
Regarding `CC(C)CC(=O)N1CCN(C(=O)CC(C)C)c2ccccc21`, the GI50 in the assay on DMS-114, with SW-620, with SK-OV-3, with TK-10, in the assay on RPMI-8226 and in the assay on NCI-H23 was > 100 µM (inactive) each time. Further, the GI50 with NCI-H460, in the assay with MOLT-4, with COLO 205, with HCT-116, in the assay on A549 and in the assay with U-251 was > 100 µM (inactive) each time. Also, the GI50 in the assay on SK-MEL-2, in the assay on UACC-257 and in the assay with NCI-H522 was > 100 µM (inactive) in each case.
On to `O=[N+]([O-])c1ccccc1[S+]([O-])c1ccccc1` (stereo not given), for which the GI50 in the assay with DMS-114 is 22.1 µM (inactive); with SW-620 it was > 100 µM (inactive); in the assay on SK-MEL-5, 36.8 µM (inactive); with SK-OV-3 it was > 100 µM (inactive); in the assay with TK-10, > 100 µM (inactive); with RPMI-8226 it was 52.5 µM (inactive). For the same compound, the GI50 in the assay on NCI-H23 was 44.5 µM (inactive); in the assay with NCI-H460 it was 53 µM (inactive); in the assay on MOLT-4 it was 57 µM (inactive); in the assay on HCT-116, 57.9 µM (inactive); in the assay with A549 it was 52.8 µM (inactive); in the assay with U-251, 41.2 µM (inactive). The GI50 in the assay with SK-MEL-2 was > 100 µM (inactive); with UACC-257, 20.7 µM (inactive); with NCI-H522 it was 65.6 µM (inactive).
In the case of `COC(=O)c1cc2c(nc1C)-c1ccccc1OS2(=O)=O`, the GI50 in the assay with DMS-114 was > 100 µM (inactive); in the assay on SW-620, > 100 µM (inactive); with SK-MEL-5, > 100 µM (inactive); with SK-OV-3, > 100 µM (inactive); with TK-10, 83.2 µM (inactive); with RPMI-8226 it was > 100 µM (inactive). In addition, the GI50 in the assay on NCI-H23, in the assay on NCI-H460, in the assay with MOLT-4, in the assay with COLO 205, with HCT-116 and with A549 was > 100 µM (inactive) each time. Further, the GI50 with U-251 is 70.1 µM (inactive); in the assay on UACC-257, > 100 µM (inactive); with NCI-H522, > 100 µM (inactive).
With `CSc1nc2c(c(O)c(C)c(=O)n2C2OC(COC(C)=O)C(OC(C)=O)C(OC(C)=O)C2OC(C)=O)c(=O)n1C` (stereo not given), the GI50 was > 100 µM (inactive) in the assay on DMS-114; > 100 µM (inactive) in the assay on SW-620; > 100 µM (inactive) in the assay with SK-MEL-5; > 100 µM (inactive) in the assay on SK-OV-3; > 100 µM (inactive) in the assay with TK-10; < 0.01 µM (active) with RPMI-8226. Besides, the GI50 with NCI-H23, in the assay on NCI-H460, in the assay with COLO 205, in the assay on HCT-116, with A549 and in the assay on U-251 was > 100 µM (inactive) each time. Moreover, the GI50 with SK-MEL-2, in the assay on UACC-257 and with NCI-H522 was > 100 µM (inactive) throughout.
As for `C/C(CCn1[nH]c(=O)ccc1=O)=N\Nc1ccc([N+](=O)[O-])cc1[N+](=O)[O-]`, the GI50 was 81.8 µM (inactive) in the assay with DMS-114; > 100 µM (inactive) in the assay on SW-620; 41.8 µM (inactive) with SK-MEL-5; > 100 µM (inactive) in the assay with TK-10; > 100 µM (inactive) in the assay with RPMI-8226; > 100 µM (inactive) in the assay with NCI-H23. The GI50 is 37 µM (inactive) in the assay with NCI-H460; > 100 µM (inactive) in the assay on MOLT-4; > 100 µM (inactive) in the assay on HCT-116; > 100 µM (inactive) with A549; > 100 µM (inactive) in the assay with SK-MEL-2; > 100 µM (inactive) in the assay with UACC-257.
Regarding `CN(C)c1n/c(=N/c2ncn[nH]2)ss1`, the GI50 with DMS-114, in the assay with SW-620, with SK-MEL-5, in the assay on SK-OV-3, in the assay with TK-10 and with RPMI-8226 was > 100 µM (inactive) throughout. The GI50 with NCI-H23, with NCI-H460, in the assay on MOLT-4, in the assay with HCT-116, in the assay on A549 and with U-251 was > 100 µM (inactive) throughout. The GI50 in the assay with SK-MEL-2, in the assay on UACC-257 and in the assay on NCI-H522 was > 100 µM (inactive) each time.
As to `CN(C)c1ccc(Cc2cc(C(C)(C)C)cc(C(C)(C)C)c2O)cc1`, the GI50 is 14.6 µM (inactive) in the assay on DMS-114; 16.9 µM (inactive) with SW-620; 15.6 µM (inactive) with SK-MEL-5; 29.3 µM (inactive) with SK-OV-3; 13.2 µM (inactive) with TK-10; 11.5 µM (inactive) with RPMI-8226. The GI50 in the assay with NCI-H23 is 16.1 µM (inactive); in the assay with NCI-H460, 18.5 µM (inactive); in the assay on MOLT-4 it was 14.5 µM (inactive); in the assay on HCT-116, 13.2 µM (inactive); in the assay with A549 it was 19.8 µM (inactive); in the assay on U-251 it was 15.2 µM (inactive). Also, the GI50 was 6.87 µM (inactive) in the assay on SK-MEL-2, 15.6 µM (inactive) in the assay on UACC-257 and 18.4 µM (inactive) with NCI-H522.
